Experimental data from ChEMBL document CHEMBL1134750, “Structure-activity relationship on the human EP3 prostanoid receptor by use of solid-support chemistry” (Bioorg Med Chem Lett, 2001).

Columns and labels:
[1] = target: T1, Prostaglandin E2 receptor EP3 subtype (Homo sapiens) (UniProt P43115); assay: Residual binding of radiolabeled PGE-2 on the Prostanoid EP3 receptor at a concentration of 1 uM
T1 sequence (whole entry): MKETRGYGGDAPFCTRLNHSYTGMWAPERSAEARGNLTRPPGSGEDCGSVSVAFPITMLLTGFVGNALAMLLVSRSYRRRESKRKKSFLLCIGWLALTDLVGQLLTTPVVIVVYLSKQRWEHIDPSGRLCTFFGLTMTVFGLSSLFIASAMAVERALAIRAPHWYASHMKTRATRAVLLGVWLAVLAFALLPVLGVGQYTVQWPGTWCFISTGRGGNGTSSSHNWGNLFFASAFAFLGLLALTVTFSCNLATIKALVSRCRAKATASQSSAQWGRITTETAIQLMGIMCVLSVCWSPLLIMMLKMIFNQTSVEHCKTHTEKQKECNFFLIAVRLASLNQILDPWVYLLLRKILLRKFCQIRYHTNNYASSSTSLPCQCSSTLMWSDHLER

[2] = target: Prostaglandin E2 receptor EP2 subtype (Homo sapiens, UniProt P43116); assay: Antagonistic activity at Prostanoid EP2 receptor in human was determined; type: functional
[3] = target: Prostaglandin F2-alpha receptor (Homo sapiens, UniProt P43088); assay: Antagonistic activity at Prostanoid FP receptor in human was determined; type: functional
Prostacyclin receptor = Prostacyclin receptor (Homo sapiens, UniProt P43119); assay: Antagonistic activity at Prostanoid IP receptor in human was determined; type: functional
[4] = target: T2, Prostaglandin E2 receptor EP3 subtype (Homo sapiens, UniProt P43115); assay: Antagonistic activity at Prostanoid EP3 receptor in human was determined; type: functional
T2 sequence (P43115 whole entry): T1 sequence (whole entry)

[5] = target: T3, Prostaglandin D2 receptor (Homo sapiens, UniProt Q13258); assay: Antagonistic activity at Prostanoid DP receptor in human was determined; type: functional
T3 sequence (Q13258 whole entry): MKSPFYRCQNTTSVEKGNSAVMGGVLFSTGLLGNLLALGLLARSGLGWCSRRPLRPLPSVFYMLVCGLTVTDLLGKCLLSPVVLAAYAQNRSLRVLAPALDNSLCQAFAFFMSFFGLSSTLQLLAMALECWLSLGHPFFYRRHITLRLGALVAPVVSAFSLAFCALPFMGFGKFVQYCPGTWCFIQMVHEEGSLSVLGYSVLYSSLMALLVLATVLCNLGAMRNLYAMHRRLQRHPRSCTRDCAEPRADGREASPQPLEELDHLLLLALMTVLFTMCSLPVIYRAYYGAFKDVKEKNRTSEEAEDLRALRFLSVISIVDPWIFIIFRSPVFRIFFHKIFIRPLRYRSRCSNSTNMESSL

[6] = target: T4, Prostaglandin E2 receptor EP1 subtype (Homo sapiens, UniProt P34995); assay: Antagonistic activity at Prostanoid EP1 receptor in human was determined; type: functional
T4 sequence (P34995 whole entry): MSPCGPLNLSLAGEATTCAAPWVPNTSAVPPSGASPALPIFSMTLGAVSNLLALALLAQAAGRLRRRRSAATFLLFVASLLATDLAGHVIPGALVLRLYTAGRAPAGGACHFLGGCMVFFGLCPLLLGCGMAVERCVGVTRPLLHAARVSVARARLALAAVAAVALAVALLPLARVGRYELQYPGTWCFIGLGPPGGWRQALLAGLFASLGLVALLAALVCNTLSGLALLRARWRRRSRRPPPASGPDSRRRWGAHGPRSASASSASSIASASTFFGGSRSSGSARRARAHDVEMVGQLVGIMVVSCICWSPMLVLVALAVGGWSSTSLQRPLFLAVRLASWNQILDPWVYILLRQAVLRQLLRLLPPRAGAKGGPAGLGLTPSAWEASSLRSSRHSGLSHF

[7] = target: Prostaglandin E2 receptor EP4 subtype (Homo sapiens, UniProt P35408); assay: Antagonistic activity at Prostanoid EP4 receptor in human was determined; type: functional
Thromboxane A2 receptor = target: T5, Thromboxane A2 receptor (Homo sapiens, UniProt P21731); assay: Antagonistic activity at Thromboxane A2 receptor in human was determined; type: functional
T5 sequence (P21731 whole entry): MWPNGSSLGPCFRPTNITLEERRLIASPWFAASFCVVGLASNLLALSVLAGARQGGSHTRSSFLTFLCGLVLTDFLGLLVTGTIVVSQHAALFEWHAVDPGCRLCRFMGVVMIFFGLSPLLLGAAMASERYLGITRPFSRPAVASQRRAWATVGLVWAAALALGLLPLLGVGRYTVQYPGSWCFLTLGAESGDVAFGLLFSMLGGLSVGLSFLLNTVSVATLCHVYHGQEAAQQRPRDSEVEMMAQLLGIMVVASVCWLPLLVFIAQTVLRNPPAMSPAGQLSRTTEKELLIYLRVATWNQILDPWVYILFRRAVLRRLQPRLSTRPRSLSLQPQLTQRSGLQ

Chain of Prostacyclin receptor (P43119 whole entry): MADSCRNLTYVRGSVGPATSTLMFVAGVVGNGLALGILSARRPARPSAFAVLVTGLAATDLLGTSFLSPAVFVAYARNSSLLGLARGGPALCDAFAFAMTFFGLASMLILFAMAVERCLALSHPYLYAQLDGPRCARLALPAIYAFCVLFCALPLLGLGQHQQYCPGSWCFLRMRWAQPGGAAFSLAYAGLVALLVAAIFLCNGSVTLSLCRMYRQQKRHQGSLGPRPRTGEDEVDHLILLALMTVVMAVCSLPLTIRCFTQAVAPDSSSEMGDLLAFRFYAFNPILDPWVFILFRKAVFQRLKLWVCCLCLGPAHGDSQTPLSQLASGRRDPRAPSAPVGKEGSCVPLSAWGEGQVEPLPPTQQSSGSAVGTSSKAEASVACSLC
Chain of Prostaglandin E2 receptor EP2 subtype (P43116 whole entry): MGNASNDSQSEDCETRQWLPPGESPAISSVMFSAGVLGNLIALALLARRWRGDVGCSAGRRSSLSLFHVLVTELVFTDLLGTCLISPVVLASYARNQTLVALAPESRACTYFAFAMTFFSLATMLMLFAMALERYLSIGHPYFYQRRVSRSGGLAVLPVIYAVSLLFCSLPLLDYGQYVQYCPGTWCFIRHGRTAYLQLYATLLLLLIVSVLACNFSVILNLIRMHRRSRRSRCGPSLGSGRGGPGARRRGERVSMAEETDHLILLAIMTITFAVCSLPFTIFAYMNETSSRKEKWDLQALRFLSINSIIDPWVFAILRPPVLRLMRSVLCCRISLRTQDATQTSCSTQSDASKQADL
Chain of Prostaglandin E2 receptor EP4 subtype (P35408 whole entry): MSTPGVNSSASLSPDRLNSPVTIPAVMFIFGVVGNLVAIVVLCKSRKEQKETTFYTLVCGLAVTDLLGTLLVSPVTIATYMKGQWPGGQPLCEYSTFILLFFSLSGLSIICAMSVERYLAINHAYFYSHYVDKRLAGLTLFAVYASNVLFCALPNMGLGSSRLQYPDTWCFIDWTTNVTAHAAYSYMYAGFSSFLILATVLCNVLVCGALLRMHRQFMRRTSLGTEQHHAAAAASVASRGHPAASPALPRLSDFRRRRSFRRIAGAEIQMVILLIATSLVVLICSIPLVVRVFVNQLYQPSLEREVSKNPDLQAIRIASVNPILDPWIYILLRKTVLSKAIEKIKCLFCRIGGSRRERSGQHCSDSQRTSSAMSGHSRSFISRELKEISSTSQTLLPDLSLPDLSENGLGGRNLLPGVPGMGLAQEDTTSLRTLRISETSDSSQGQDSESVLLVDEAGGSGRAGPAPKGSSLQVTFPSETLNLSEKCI
Chain of Prostaglandin F2-alpha receptor (P43088 whole entry): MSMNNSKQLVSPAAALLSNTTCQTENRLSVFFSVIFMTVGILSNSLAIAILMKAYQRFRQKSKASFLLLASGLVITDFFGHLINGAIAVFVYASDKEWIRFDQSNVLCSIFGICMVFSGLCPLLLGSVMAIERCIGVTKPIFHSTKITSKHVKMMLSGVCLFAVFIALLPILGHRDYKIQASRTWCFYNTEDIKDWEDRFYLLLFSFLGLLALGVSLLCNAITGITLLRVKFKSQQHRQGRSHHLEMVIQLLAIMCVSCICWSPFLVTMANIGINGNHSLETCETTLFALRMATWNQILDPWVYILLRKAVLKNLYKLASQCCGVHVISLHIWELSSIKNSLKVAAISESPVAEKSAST

OB(O)c1cccc(Cl)c1 showed a Residual binding [1] of 55%.
For OB(O)c1ccc2ccccc2c1, the Residual binding [1] was 5%.
With OCc1cccc(B(O)O)c1 the Residual binding [1] was 84%.
Compound OB(O)c1cccs1 has a Residual binding [1] of 74%.
CSc1ccc(B(O)O)cc1 gave a Residual binding [1] of 27%.
In the case of OB(O)c1ccc(Cl)cc1Cl, the Residual binding [1] is reported as 25%.
For OB(O)c1ccsc1, the Residual binding [1] was 77%.
OB(O)c1ccccc1CSCCc1ccccc1 was tested, and the Residual binding [1] was 68%.
Compound O=C(O)/C=C/c1ccccc1Cc1ccc(Cl)c(Cl)c1 has a Ki [2] of 13 µM, a Ki [3] of 41 µM and a Ki (Prostacyclin receptor) of 37 µM. It also gave a Ki [4] of 0.032 µM, a Ki [5] of 2.4 µM and a Ki [6] of 63 µM. The Ki [7] was 10 µM and the Ki (Thromboxane A2 receptor) was 0.9 µM.
OB(O)c1cccc(C(F)(F)F)c1 showed a Residual binding [1] of 54%.
In the case of CSc1ccccc1B(O)O, the Residual binding [1] is reported as 96%.
In the case of COc1ccc(B(O)O)cc1OC, the Residual binding [1] is reported as 84%.
Compound OB(O)c1ccc(Cl)c(Cl)c1 has a Residual binding [1] of 8%.
O=C(O)/C=C/c1ccccc1Cc1ccc2ccccc2c1 was tested, and the Ki [2] was 12 µM, the Ki [3] was 69 µM and the Ki (Prostacyclin receptor) was > 100 µM. For the same compound, the Ki [4] was 0.02 µM, the Ki [5] was 0.53 µM and the Ki [6] was > 100 µM. The Ki [7] was 3.1 µM and the Ki (Thromboxane A2 receptor) was 10 µM.
With OB(O)c1cc2ccccc2o1 the Residual binding [1] was 61%.
In the case of OB(O)c1cccc(CSCCc2ccccc2)c1, the Residual binding [1] is reported as 52%.
For CSc1ccc(Cc2ccccc2/C=C/C(=O)O)cc1, the Ki [2] was 43 µM, the Ki [3] was > 83 µM and the Ki (Prostacyclin receptor) was > 76 µM. The Ki [4] was 0.08 µM, the Ki [5] was 4.1 µM and the Ki [6] was > 100 µM. For the same compound, the Ki [7] was > 50 µM and the Ki (Thromboxane A2 receptor) was 4.6 µM.
OB(O)c1ccccc1C(F)(F)F gave a Residual binding [1] of 89%.
In the case of OB(O)c1cccc2ccccc12, the Residual binding [1] is reported as 48%.
Work on O=C(O)/C=C/c1ccccc1Cc1ccc(Cl)cc1Cl yielded a Ki [2] of 4.1 µM, a Ki [3] of 63 µM and a Ki (Prostacyclin receptor) of 31 µM. The Ki [4] was 0.11 µM, the Ki [5] was 2.5 µM and the Ki [6] was > 100 µM. For the same compound, the Ki [7] was > 40 µM and the Ki (Thromboxane A2 receptor) was 0.52 µM.
COc1ccccc1B(O)O showed a Residual binding [1] of 93%.
Compound OB(O)c1ccco1 has a Residual binding [1] of 91%.
In the case of CC(C)(C)NS(=O)(=O)c1ccc(B(O)O)cc1, the Residual binding [1] is reported as 100%.
